Assay results as given in patent US7001907B2, “Peptide-containing α-ketoamide cysteine and serine protease inhibitors” (Cephaon, Inc., priority 1997, dated 2006).

Biological target: T1, Recombinant human calpain I (Homo sapiens, UniProt P07384)
T1 construct: made in house
T1 sequence (P07384 1-714): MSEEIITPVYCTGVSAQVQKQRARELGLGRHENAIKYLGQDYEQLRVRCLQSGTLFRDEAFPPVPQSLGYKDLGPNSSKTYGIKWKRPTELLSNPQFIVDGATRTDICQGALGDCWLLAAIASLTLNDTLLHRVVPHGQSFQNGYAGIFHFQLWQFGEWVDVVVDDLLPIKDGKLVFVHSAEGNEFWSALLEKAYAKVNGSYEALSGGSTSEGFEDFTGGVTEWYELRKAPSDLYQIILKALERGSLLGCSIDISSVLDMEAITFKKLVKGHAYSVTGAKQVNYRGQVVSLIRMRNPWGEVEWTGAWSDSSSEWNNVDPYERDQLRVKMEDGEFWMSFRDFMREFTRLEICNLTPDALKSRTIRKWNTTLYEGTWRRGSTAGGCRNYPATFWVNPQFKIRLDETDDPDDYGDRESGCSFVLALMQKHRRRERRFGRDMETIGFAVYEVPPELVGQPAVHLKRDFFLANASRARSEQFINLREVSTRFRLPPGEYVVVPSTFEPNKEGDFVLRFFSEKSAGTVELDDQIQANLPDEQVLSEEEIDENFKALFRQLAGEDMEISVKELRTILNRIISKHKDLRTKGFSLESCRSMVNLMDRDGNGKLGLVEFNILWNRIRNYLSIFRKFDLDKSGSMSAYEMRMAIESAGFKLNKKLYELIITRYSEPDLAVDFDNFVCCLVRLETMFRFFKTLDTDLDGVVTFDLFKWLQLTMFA
T1 sequence (P04632 1-268 partner): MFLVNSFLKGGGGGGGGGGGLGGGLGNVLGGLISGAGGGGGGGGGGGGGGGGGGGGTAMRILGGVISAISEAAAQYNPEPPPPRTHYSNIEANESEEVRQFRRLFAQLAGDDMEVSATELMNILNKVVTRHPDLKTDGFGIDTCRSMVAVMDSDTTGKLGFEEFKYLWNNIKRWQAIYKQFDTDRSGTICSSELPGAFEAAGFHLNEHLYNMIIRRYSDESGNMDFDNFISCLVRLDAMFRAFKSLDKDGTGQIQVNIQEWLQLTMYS
Test: Inhibition of cysteine protease activity: calpain I, Succ-Leu-Tyr-MNA substrate hydrolysis
Type: biochemical
Settings: Table 5, achiral P2 mimetic α-ketoamides
Procedure: To evaluate inhibitory activity, stock solutions (40 times concentrated) of each compound to be tested were prepared in 100% anhydrous DMSO and 5 μl of each inhibitor preparation were aliquoted into each of three wells of a 96-well plate. Recombinant human calpain I, prepared by the method of Meyer et al. (Biochem. J. 1996, 314: 511–519; incorporated herein by reference in its entirety), was diluted into assay buffer (i.e., 50 mM Tris, 50 mM NaCl, 1 mM EDTA, 1 mM EGTA, and 5 mM β-mercaptoethanol, pH 7.5, including 0.2 mM Succ-Leu-Tyr-MNA), and 175 μl was aliquoted into the same wells containing the independent inhibitor stocks as well as to positive control wells containing 5 μl DMSO, but no compound. To start the reaction, 20 μl of 50 mM CaCl2 in assay buffer was added to all wells of the plate, excepting three, which were used as background signal baseline controls. Substrate hydrolysis was monitored every 5 minutes for a total of 30 minutes. Substrate hydrolysis in the absence of inhibitor was linear for up to 15 minutes.
Inhibition of calpain I activity was calculated as the percent decrease in the rate of substrate hydrolysis in the presence of inhibitor relative to the rate in its absence. Comparison between the inhibited and control rates was made within the linear range for substrate hydrolysis. The IC50s of inhibitors (concentration yielding 50% inhibition) were determined from the percent decrease in rates of substrate hydrolysis in the presence of five to seven different concentrations of the test compound. The results were plotted as percent inhibition versus log inhibitor concentration, and the IC50 was calculated by fitting the data to the four-parameter logistic equation shown below using the program GraphPad Prism (GraphPad Software, Inc., San Diego, Calif.). y=d+[(a−d)/(1+(x/c)^b)]
The parameters a, b, c, and d are defined as follows: a is % inhibition in the absence of inhibitor, b is the slope, c is the IC50, and d is the % inhibition at an infinite concentration of inhibitor.

IC50 [nM]	Compound
600	O=C(NCCNS(=O)(=O)c1ccc(-c2ccccn2)s1)C(=O)[C@H](Cc1ccccc1)NC(=O)c1cc(C(F)(F)F)cc(C(F)(F)F)c1 [Compound 126]
178	Cc1cccc(C)c1C(=O)N[C@@H](Cc1ccccc1)C(=O)C(=O)NCCNS(=O)(=O)c1ccc(-c2ccccn2)s1 [Compound 127]
29	O=C(NCCNS(=O)(=O)c1ccc(-c2cccc(CN3CCOCC3)c2)s1)C(=O)[C@H](Cc1ccccc1)NC(=O)c1c(Cl)cccc1Cl [Compound 131]
11	N#Cc1cccc(-c2ccc(S(=O)(=O)NCCNC(=O)C(=O)[C@H](Cc3ccccc3)NC(=O)c3c(Cl)cccc3Cl)s2)c1 [Compound 133]
22	N#Cc1cccc(-c2ccc(S(=O)(=O)NCCNC(=O)C(=O)[C@H](Cc3ccccc3)NC(=O)c3c(F)cccc3F)s2)c1 [Compound 135]
62	O=C(NCCNS(=O)(=O)c1ccc(-c2ccon2)s1)C(=O)[C@H](Cc1ccccc1)NC(=O)c1c(F)cccc1F [Compound 136]
145	CCc1cccc(CC)c1C(=O)N[C@@H](Cc1ccccc1)C(=O)C(=O)NCCNS(=O)(=O)c1ccc(-c2ccon2)s1 [Compound 137]
4000	COc1cccc(OC)c1C(=O)N[C@@H](Cc1ccccc1)C(=O)C(=O)NCCNS(=O)(=O)c1ccc(-c2ccon2)s1 [Compound 138]
168	CC(C)c1ccccc1C(=O)N[C@@H](Cc1ccccc1)C(=O)C(=O)NCCNS(=O)(=O)c1ccc(-c2ccon2)s1 [Compound 139]
58	O=C(NCCNS(=O)(=O)c1ccc(-c2ccon2)s1)C(=O)[C@H](Cc1ccccc1)NC(=O)c1c(F)cccc1Cl [Compound 140]
1500	CC(C)C(=O)N[C@@H](Cc1ccccc1)C(=O)C(=O)NCCNS(=O)(=O)c1ccc(-c2ccccn2)s1 [Compound 143]
590	CC(C)CC(=O)N[C@@H](Cc1ccccc1)C(=O)C(=O)NCCNS(=O)(=O)c1ccc(-c2ccccn2)s1 [Compound 144]
29	CC(C)CCC(=O)N[C@@H](Cc1ccccc1)C(=O)C(=O)NCCNS(=O)(=O)c1ccc(-c2ccccn2)s1 [Compound 145]
87	CC(CCC(=O)N[C@@H](Cc1ccccc1)C(=O)C(=O)NCCNS(=O)(=O)c1ccc(-c2ccccn2)s1)c1ccccc1 (some centres unmarked) [Compound 148]
1500	O=C(CCCc1ccccc1)N[C@@H](Cc1ccccc1)C(=O)C(=O)NCCNS(=O)(=O)c1ccc(-c2ccccn2)s1 [Compound 149]
15	CC(C)CCC(=O)N[C@@H](Cc1ccccc1)C(=O)C(=O)NCCNS(=O)(=O)c1ccc(-c2cccc(C#N)c2)s1 [Compound 150]
420	N#Cc1cccc(-c2ccc(S(=O)(=O)NCCNC(=O)C(=O)[C@H](Cc3ccccc3)NC(=O)CCC3CCCC3)s2)c1 [Compound 151]
